Values of other authors in patent US20050074443A1, “Methods of attenuating autoimmune disease and compositions useful therefor” (priority 2003, published 2005).

Tested on: experimental autoimmune encephalomyelitis
Conditions: exogenous administration, mouse model

SMILES: C=C1/C(=C\C=C2/CCC[C@]3(C)[C@@H]([C@H](C)CCCC(C)(C)O)CC[C@@H]23)C[C@@H](O)C[C@@H]1O [1,25-dihydroxyvitamin D3]
- effect on experimental autoimmune encephalomyelitis: can prevent experimental autoimmune encephalomyelitis
